Values of other authors, collected in patent publication US12404360B2, “Method of preparing graft copolymer” (LG CHEM, LTD., priority 2019, dated 2025).

Columns and labels:
[1] = not given; remark: listed apart in the source

SMILES | 10-hour half-life decomposition temperature in water | Solubility in water at 20° C. [1] | 10-hour half-life decomposition temperature in toluene | 10-hour half-life decomposition temperature in methanol (in methanol)
CC(C)(/N=N/C(C)(C)C(=N)N)C(=N)N [VA-050] | 56 °C |  |  | 
CC(C#N)(CCC(=O)O)/N=N/C(C)(C#N)CCC(=O)O (stereo not drawn) [VA-501] | 69 °C | 0.1 g/100 g |  | 
CC(C)(/N=N/C(C)(C)C(=N)NCCC(=O)O)C(=N)NCCC(=O)O [VA-057] | 57 °C | 14 g/100 g |  | 
CC(C)(C#N)/N=N/C(C)(C)C#N [AIBN] |  | < 0.1 g/100 g | 65 °C | 
CC(C)(/N=N/C(C)(C)C(=O)NCCO)C(=O)NCCO [VA-086] | 86 °C | 2.4 g/100 g |  | 
CC(C)CC(C)(C#N)/N=N/C(C)(C#N)CC(C)C (stereo not drawn) [Example V-65] |  | < 0.1 g/100 g | 51 °C | 
CC(C)(/N=N/C(C)(C)C1=NCCN1)C1=NCCN1 [VA-061] |  | 0.5 g/100 g |  | 61 °C
CC(C)(/N=N/C(C)(C)C1=NCCN1)C1=NCCN1 [VA-044] | 44 °C | 35.2 g/100 g |  | 
